{"source": "patent US20040138239A1", "about": "“Compositions and methods for targeting cerebral circulation and treatment of headache” (priority 2004, published 2004)", "key": {"fever": {"test_system": "fever", "conditions": "oral delivery; cited from earlier work"}, "headache": {"test_system": "headache", "experiment": "Inventors' observation: topical NSAID formulations in treatment of a headache", "format": "in vivo, human", "conditions": "applied to tender spot or area superficial to carotid, temporal and/or vertebral artery", "source_text": "Especially preferred compositions include a xanthine derivative in a concentration of about 4% (wt) to 70% (wt) and ketoprofen in a concentration of about 0.5% (wt) to 50% (wt). With respect to the xanthine derivative, the same considerations as described above apply. Furthermore, such particularly preferred compositions may be formulated in a lecithin-containing formulation or a pluronic-lecithin-organogel formulation (supra). It should be especially recognized, that compositions including a xanthine derivative or an NSAID have generally been described in the art. However, the inventors observed that formulations including an NSAID other than Ketoprofen generally fail to provide relief in treatment of a headache, when topically applied to a person (either to a tender spot, or to an area superficial to a carotid artery, a temporal artery and/or a vertebral artery). It is therefore a surprising result that Ketoprofen is the only NSAID effective in treatment of a headache when used in protocols according to the inventive subject matter (see also examples). While not wishing to be bound by a particular hypothesis or theory, the inventors contemplate that the effect of Ketoprofen may be at least in part mediated by a muscle-relaxant effect rather than via a suppressive effect in inflammation."}}}
{"smiles": "CC(=O)Nc1ccc(O)cc1", "note": "[Acetaminophen]", "values": [{"measurement": "time to achieve sufficient plasma concentration to lower the fever", "setting": "fever", "result": "at least 20 minutes"}]}
{"smiles": "CC(C(=O)O)c1cccc(C(=O)c2ccccc2)c1", "note": "(centres unmarked) [Ketoprofen, 2-(meta-benzoylphenyl)pro-pionic acid]", "values": [{"measurement": "relief in treatment of a headache when topically applied", "setting": "headache", "result": "effective"}]}
